≈ marks a conversion by molar mass, not a printed value.
What was measured:
red blood cells = conditions: ref Chen et al., 2011; Papalia et al., 2021; cited from earlier work
MTCC 737 [1] = experiment: Transmission electron microscopy; conditions: S. aureus MTCC 737; 100 µg/ml, 12 h
S. aureus (MTCC737) [2] = experiment: Agar well diffusion; conditions: Staphylococcus aureus, MTCC737
MRSA 831 [3] = experiment: Neutropenic thigh infection model in mice; conditions: neutropenic BALB/c mice, MRSA 831 10^8 CFU/ml, oral 30 mg/kg, after 2 h and 24 h, vs untreated control
MTCC 737 persister cells = experiment: Persister killing assay; format: cell-based, Staphylococcus aureus; conditions: S. aureus persisters
Description: To evaluate the persister-killing activity of 2,2’-Bipy derivatives, MTCC 737 and MRSA 831 cells were grown overnight to the stationary phase at 37°C ([Kim et al., 2018b]). […] The bacterial densities of persisters were recorded at OD600 at hourly intervals from 0 to 6 h.

MRSA 831 [4] = experiment: Biofilm imaging by confocal laser scanning microscopy (SYTO 9/PI); format: cell-based, methicillin-resistant S. aureus; conditions: derivatives 100 µg/ml, 24 h
Description: Untreated wells were used as a control. […] Using SYTO 9 and PI dyes. […] Two independent experiments were done in triplicate.

MRSA 831 (MRSA) = experiment: Agar well diffusion; conditions: Staphylococcus aureus, MRSA
MRSA 831 [5] = experiment: Broth microdilution MIC; conditions: Staphylococcus aureus, MRSA, 18 h, read-out: Minimum inhibitory concentration
MRSA 831 [6] = experiment: Transmission electron microscopy; conditions: 100 µg/ml, 12 h
MTCC 737 [7] = experiment: Biofilm imaging by confocal laser scanning microscopy (SYTO 9/PI); conditions: derivatives 100 µg/ml, 24 h
S. aureus (MTCC737) [8] = experiment: Broth microdilution MIC; conditions: Staphylococcus aureus, MTCC737, 18 h, read-out: Minimum inhibitory concentration
MTCC 737 [9] = experiment: Neutropenic thigh infection model in mice; format: in vivo, Staphylococcus aureus; conditions: neutropenic BALB/c mice, MTCC 737 10^6 CFU/ml, oral 30 mg/kg, 48 h, vs untreated group

CN[C@H](CC(C)C)C(=O)N[C@H]1C(=O)N[C@@H](CC(N)=O)C(=O)N[C@H]2C(=O)N[C@H]3C(=O)N[C@H](C(=O)N[C@H](C(=O)O)c4cc(O)cc(O)c4-c4cc3ccc4O)[C@H](O)c3ccc(c(Cl)c3)Oc3cc2cc(c3O[C@@H]2O[C@H](CO)[C@@H](O)[C@H](O)[C@H]2O[C@H]2C[C@](C)(N)[C@H](O)[C@H](C)O2)Oc2ccc(cc2Cl)[C@H]1O [Vancomycin, reference compound]
Concentration up to which non-hemolytic (red blood cells): up to 32 µg/ml | Cell morphology (TEM) (MTCC 737 [1]): distorted morphology | zone of inhibition at 50 µg/mL (S. aureus (MTCC737) [2]): 14 mm | Reduction in the bacterial load in thigh tissue (MRSA 831 [3]): approximately 1.9 log10 | Concentration showing similar activity on persister cell counts (MTCC 737 persister cells): 100 µg/mL | Biofilm disruption (CLSM) (MRSA 831 [4]): effective biofilm disruption and severe cell damage | zone of inhibition at 50 µg/mL (MRSA 831 (MRSA)): 12 mm | MIC (MRSA 831 [5]): 6.25 µg/mL (≈ 4.31 µM) | Cell morphology (TEM) (MRSA 831 [6]): distorted morphology | Biofilm disruption (CLSM) (MTCC 737 [7]): effective biofilm disruption and severe cell damage | MIC (S. aureus (MTCC737) [8]): 6.25 µg/mL (≈ 4.31 µM) | Reduction in the bacterial load in thigh tissue (MTCC 737 [9]): approximately 1.9 log10
